# Test results reported in patent US20220087979A1, “TREATMENT OF MALIGNANCIES” (Board of Trustees of Michigan State University, priority 2017, published 2022).
# Columns and labels:
# U87-MG cells [1] = experiment: Cell viability assay (MTS assay); assay type: cell-based; details: 72 h
# Experimental: (§1) FIG. 5B graphically illustrates the viability of glioblastoma cells treated with different concentrations of TCH-165 or TCH-023 for 72 h. MTS reagent was added to quantify cell viability and the absorbance measured at 490 nm 2 h later. Absorbance readings are expressed as percentage of vehicle control for three independent experiments and data are graphed as mean±SD.
# as §1, with “5D is a bar graph showing” for “5B graphically illustrates”, “temozolomide” for “TCH-023”, “was then” for “was”, “added” for “added to quantify cell viability”, “and” for “and the”
# U87-MG cells were seeded in a clear 96-well plate at a density of 1.0×10^4 cells per well. Cells were treated with different concentrations of TCH-165 or temozolomide for 72 h. MTS solution (20 μL) was then added and incubated under cell culture conditions for 2 h. Absorbance was read at 490 nm and expressed as a percentage of vehicle control.
# LC3B-II = experiment: LC3B immunoblot in U87-MG cells; assay type: cell-based; details: for amount of LC3B-II: TCH-165 10 μM 16 h or BafA1 100 nM 4 h, alone (FIG. 2A)
# Experimental: (§2) U87-MG cells at 70% confluency were treated with test compounds at the reported concentration and time. Cells were washed with warm PBS and trypsinized with 0.25% Trypsin-EDTA. Samples were collected in chilled PBS, pelleted and washed twice with chilled PBS. Cells were then lysed with celLytic buffer supplemented with 1% sigma fast inhibitor cocktail. Total protein was quantified by BCA reagent, and 20 μg resolved on a 12% (LC3B) or 30 μg on a 4-12% (p62, ATG5, beclin1) Tris-glycine SDS-PAGE, and immunoblotted with antigen specific antibody (1:1000), and goat anti-rabbit HRP (1:1000). Blots were developed with ECL western reagent and imaged with x-ray film.
# To determine whether TCH-165 affects LC3B-II formation, glioblastoma astrocytoma (U87-MG) cells were treated with TCH-165 and the level of LC3B-II monitored by immunoblot. U87-MG cells were incubated with different concentrations of TCH-165 and immunoblotted with LC3B-specific antibody. U87-MG cells were also treated with a specific amount of TCH-165 (10 μM) and evaluated at 0, 6, 12, and 24 hours. Cell lysates were immunoblotted with LC3B-specific antibody and anti-GAPDH as a loading control.
# U87-MG cells were treated with either vehicle (DMSO) or TCH-165 (10 μM) for 16 h, followed by treatment with bafilomycin A1 (100 nM) for 4 h. Conversion of LC3BI to LC3BII was detected by immunoblot with LC3B-specific antibody.
# LC3B = experiment: Confocal immunofluorescence of LC3B in U87-MG cells; assay type: cell-based
# Experimental: (§4) U87-MG cells were plated in complete medium at 2.5×10^5 cells/well of a four-chamber glass slide overnight. Fresh medium (500 μL) containing the test compound was added and allowed to incubate for the desire time under cell culture conditions. Cells were washed with chilled immunofluorescent (IF) wash buffer (1×PBS, pH 8.0) and fixed with methanol at −20° C. for 10 minutes. Cells were then washed 2× with IF wash buffer and incubated in blocking buffer (1×PBS, 5% normal goat serum, 0.3% Triton X-100 pH 8.0) for 1 h at RT. Blocking buffer was replaced with primary antibody diluted in dilution buffer (1×PBS, 1% BSA, 0.3% Triton X-100 pH 8.0) overnight (1:200) at 40° C. Primary antibody was washed off 3× and incubated in anti-rabbit Alexa Fluor 488 (1:500) and/or anti-mouse Alexa Fluor 594 for 1 h in the dark, at RT. Secondary antibodies were then washed off (3×) and nuclei stained with Hoechst (4 μg/mL) at RT, for 20 minutes. DNA dye was rinsed off and slides mounted in Prolong Gold and allowed to cure overnight at RT, in the dark. Slides were sealed with nail polish, and LC3B, LAMP1 and p62 punctae detected with a 60× Plan Apo oil objective on a Nikon C2+ or Nikon A1 confocal laser microscope.
# LC3B polypeptides were stained with LC3B antibody/Alexa Fluor 488 secondary (green) and the cellular nuclei were stained with Hoechst DNA dye (blue).
# [2] = system: lysosomes of HEK293T cells; experiment: Lysosome de-acidification live imaging (LysoSensor yellow/blue dextran, LAMP1-RFP); assay type: cell-based, Human; details: cells expressing LAMP1-RFP; TCH-165 10 μM, chloroquine 100 μM
# Experimental: HEK293T cells cultured on cover glass slides were transduced with 30 particles per cell of LAMP1-RFP and cultured for 24 h. Cells were then incubated with either vehicle, TCH-165 (10 μM) or chloroquine (100 μM) for 12 h. LysoSensor Yellow/Blue dextran, 10,000 MW, Anionic (1 mg/mL) was then added for a further 12 h and cells imaged with an upright 60× Plan Apo oil objective on a Nikon A1 confocal microscope using standard filter sets for RFP, blue and yellow dyes.
# Lysosensor yellow/blue dextran is a pH sensitive dye that is […] (neutral pH). Lysosomes were distinguished from other acidic organelles by imaging with a combination of lysosensor yellow/blue dextran and LAMP1-RFP.
# hOS Saos2 = experiment: Tumor cell growth inhibition, hOS Saos2; assay type: cell-based; details: SAOS-2; Human Osteosarcoma cell line hOS Saos2
# Experimental: (§3) The pIC50 values shown in Table 1, herein, was determined as the negative log of the amount of compound required to inhibit tumor cell growth by 50% (the IC50). […] A pIC50 of 4 indicates an IC50 of 10-4.
# Normal FB1 = experiment: Cell growth inhibition, Normal FB1; assay type: cell-based; details: Canis lupus familiaris; Canine Normal Firbroblasts Normal FB1
# Experimental: as §3
# autolysosome formation [3] = experiment: Co-localization of LC3B with LAMP1 in U87MG cells; assay type: cell-based; details: 10 μM, 24 h
# Experimental: as §4
# Co-localization of LC3B with LAMP1 was therefore examined to distinguish inhibition of autolysosome formation from autolysosome de-acidification. […]
# U87-MG cells [4] = experiment: Cytotoxicity assay (LDH assay); assay type: cell-based; details: Homo sapiens, U-87 MG, LDH-based assay, 72 h, FIG. 5E-5F
# Experimental: U87-MG cells were seeded in a clear 96-well plate at a density of 1.0×10^4 cells per well. Cells were treated with different concentrations of TCH-165 or temozolomide for 72 h. Culture medium was then assayed for lactate dehydrogenase (LDH) activity according to the manufacturer's protocol. Briefly, cells for maximum toxicity were treated with 10 μL of lysis buffer 45 minutes prior to enzyme assay. Culture media (50 μL) were then transferred to new 96 well plate and 50 μL of substrate mix added. The reaction mixtures were incubated at RT protected from light for 30 minutes. Stop solution (50 μL) was then added and absorbance read at 490 nm. Toxicity was expressed as a fraction of sample treated with lysis buffer.
# [5] = system: lysosome associated membrane protein (LAMP)-1; experiment: Confocal immunofluorescence of LAMP1 in U87-MG cells; assay type: cell-based; details: 10 μM, 24 h, FIG. 1D
# Experimental: as §4
# HEK293 = experiment: Cell growth inhibition, HEK293; assay type: cell-based; details: Human Embryonic Kidney HEK293
# Experimental: as §3
# p62 [6] = experiment: Confocal immunofluorescence of p62 in U87-MG cells; assay type: cell-based; details: 10 μM, 24 hr, immunofluorescence imaging
# Experimental: All statistical analyses were performed on densitometry data (imageJ) of five individual experiments. Data are graphed as mean±SD and were analyzed by One-Way ANOVA with Bonferroni's multiple comparison test or by student t-test for 2 samples (ns=not significant, *p<0.05, *p<0.01, **p<0.001).
# U87-MG cells were plated in complete medium at 2.5×10^5 cells/well of a four-chamber glass slide overnight. Fresh medium (500 μL) containing the test compound was added and allowed to incubate for the desire time under cell culture conditions. Cells were washed with chilled immunofluorescent (IF) wash buffer (1×PBS, pH 8.0) and fixed with methanol at −20° C. for 10 minutes. Cells were then washed 2× with IF wash buffer and incubated in blocking buffer (1×PBS, 5% normal goat serum, 0.3% Triton X-100 pH 8.0) for 1 h at RT. Blocking buffer was replaced with primary antibody diluted in dilution buffer (1×PBS, 1% BSA, 0.3% Triton X-100 pH 8.0) overnight (1:200) at 40° C. Primary antibody was washed off 3× and incubated in anti-rabbit Alexa Fluor 488 (1:500) and/or anti-mouse Alexa Fluor 594 for 1 h in the dark, at RT. Secondary antibodies were then washed off (3×) and nuclei stained with Hoechst (4 μg/mL) at RT, for 20 minutes. […] Slides were sealed with nail polish, and LC3B, LAMP1 and p62 punctae detected with a 60× Plan Apo oil objective on a Nikon C2+ or Nikon A1 confocal laser microscope.
# cOS Gracie = experiment: Tumor cell growth inhibition, cOS Gracie; assay type: cell-based; details: Canis lupus familiaris; Canine Osteosarcoma cell line cOS Gracie
# Experimental: as §3
# MCT C2 = experiment: Tumor cell growth inhibition, MCT C2; assay type: cell-based; details: Canis lupus familiaris; Canine Mastocytoma cell line MCT C2
# Experimental: as §3
# Hela cells = experiment: Tumor cell growth inhibition, Hela cells; assay type: cell-based; details: Human Cervical Adenocarcinoma
# Experimental: as §3
# Fel SCC1 = experiment: Tumor cell growth inhibition, Fel SCC1; assay type: cell-based; details: Felis catus; Feline Squamous Cell Carcinoma cell line Fel SCC1
# Experimental: as §3
# cOS Brandie mets = experiment: Tumor cell growth inhibition, cOS Brandie mets; assay type: cell-based; details: Canis lupus familiaris; Canine Osteosarcoma cell line cOS Brandie mets
# Experimental: as §3
# autolysosome formation [7] = experiment: Tandem RFP-GFP-LC3B autophagy sensor in U87-MG cells; assay type: cell-based; details: 10 μM, 24 h, FIG. 3A
# Experimental: By combining an acid insensitive red fluorescent protein (RFP) with an acid sensitive green fluorescent protein (GFP), the conversion of autophagosomes (with neutral pH) to an autolysosome (with acidic pH) can be visualized by monitoring the specific loss of the GFP fluorescence upon acidification of the autophagosome following lysosomal fusion.
# U87-MG cells were transduced with 30 particles per cell of tandem-RFP-GFP-LC3B and cultured for 24 h. Cells were then incubated with either vehicle or TCH-165 (10 μM) for an additional 24 h. Cells were fixed with 4% formaldehyde, counter stained with Hoechts DNA dye, and imaged on a Nikon C2 confocal microscope using standard filter sets for blue dye, GFP and RFP.
# hOS U2OS = experiment: Tumor cell growth inhibition, hOS U2OS; assay type: cell-based; details: Human Osteosarcoma cell line hOS U2OS
# Experimental: as §3
# cOS Abrams = experiment: Tumor cell growth inhibition, cOS Abrams; assay type: cell-based; details: Canis lupus familiaris; Canine Osteosarcoma cell line cOS Abrams
# Experimental: as §3
# Normal FB2 = experiment: Cell growth inhibition, Normal FB2; assay type: cell-based; details: Canis lupus familiaris; Canine Normal Firbroblasts Normal FB2
# Experimental: as §3
# HS BD = experiment: Tumor cell growth inhibition, HS BD; assay type: cell-based; details: Canis lupus familiaris; Canine Histiocytic Sarcoma cell line HS BD
# Experimental: as §3
# Fel SCC3 = experiment: Tumor cell growth inhibition, Fel SCC3; assay type: cell-based; details: Felis catus, SCC-3; Feline Squamous Cell Carcinoma cell line Fel SCC3
# Experimental: as §3
# [8] = dog, in vivo
# Fel SCC2 = experiment: Tumor cell growth inhibition, Fel SCC2; assay type: cell-based; details: Felis catus, SCC-2; Feline Squamous Cell Carcinoma cell line Fel SCC2
# Experimental: as §3
# cOS Brandie primary = experiment: Tumor cell growth inhibition, cOS Brandie primary; assay type: cell-based; details: Canis lupus familiaris; Canine Osteosarcoma cell line cOS Brandie primary
# Experimental: as §3
# cOS Ginger = experiment: Tumor cell growth inhibition, cOS Ginger; assay type: cell-based; details: Canis lupus familiaris; Canine Osteosarcoma cell line cOS Ginger
# Experimental: as §3
# HS PJ = experiment: Tumor cell growth inhibition, HS PJ; assay type: cell-based; details: Canis lupus familiaris; Canine Histiocytic Sarcoma cell line HS PJ
# Experimental: as §3
# HS DH82 = experiment: Tumor cell growth inhibition, HS DH82; assay type: cell-based; details: Canis lupus familiaris; Canine Histiocytic Sarcoma cell line HS DH82
# Experimental: as §3
# beclin-1, ATG5 and ATG12 = experiment: Immunoblot of autophagic regulators in U87-MG cells; assay type: cell-based; details: 24 h, FIG. 4
# Experimental: as §2
# p62 [9] = experiment: p62 immunoblot in U87-MG cells; assay type: cell-based; details: concentration (FIG. 2C) and time (10 μM; 0-24 h, FIG. 2D) dependent
# Experimental: as §2
# hOS MG63 = experiment: Tumor cell growth inhibition, hOS MG63; assay type: cell-based; details: MG-63; Human Osteosarcoma cell line hOS MG63
# Experimental: as §3
# cOS Blaz = experiment: Tumor cell growth inhibition, cOS Blaz; assay type: cell-based; details: Canis lupus familiaris; Canine Osteosarcoma cell line cOS Blaz
# Experimental: as §3
# cOS D17 = experiment: Tumor cell growth inhibition, cOS D17; assay type: cell-based; details: Canis lupus familiaris; Canine Osteosarcoma cell line cOS D17
# Experimental: as §3
smiles,measurement,setting,value
"Cn1nnc2c(C(N)=O)ncn2c1=O [TMZ, temozolomide]",U87-MG cells killed,"U87-MG cells [1]; 1 mM, FIG. 5D",54%
"CO/C1=C\C(C)=C\[C@@H](C)[C@@H](O)[C@@H](C)C/C(C)=C/C=C/[C@H](OC)[C@@H]([C@@H](C)[C@@H](O)[C@H](C)[C@@]2(O)C[C@@H](O)[C@H](C)[C@@H](C(C)C)O2)OC1=O [BafA1, bafilomycin A1, reference compound]",amount of LC3B-II,LC3B-II; U87-MG,significant increase
"CCOC(=O)[C@]1(c2ccccc2)N=C(c2ccccc2)N[C@@H]1c1ccccc1 [TCH-023, reference compound]",LC3B-II accumulation,"LC3B-II; U87-MG, structurally related control",no effect
same,inhibition of autophagy (LC3B immunoblot),"LC3B-II; glioblastoma cells, 10 μM, 24 h, FIG. 5C",did not inhibit autophagy
same,induction of cell death,U87-MG cells [1]; U87-MG,did not induce any cell death
"CCC(=O)N1CCN(c2ccc(-n3c(=O)ccc4cnc5ccc(-c6cnc7ccccc7c6)cc5c43)cc2C(F)(F)F)CC1 [torin1, reference compound]",accumulation of autophagic vacuoles,"LC3B; torin1 100 nM alone, FIG. 2B",modest accumulation
"CCN(CC)CCCC(C)Nc1ccnc2cc(Cl)ccc12 (centres unmarked) [chloroquine, reference compound]",lysosensor yellow/blue dextran fluorescence of lysosomes,[2],shifted the fluorescence to the yellow spectrum
CCOC(=O)[C@]1(c2ccccc2)N=C(c2ccc(OC)cc2)N(Cc2ccccc2)[C@@H]1c1ccc(NCc2ccccc2)cc1 [TCH-165],LC3B-II levels versus TCH-165 alone,"LC3B-II; U87-MG, TCH-165 10 μM 16 h followed by BafA1 100 nM 4 h",did not further increase
same,amount of LC3B-II,LC3B-II; U87-MG,significant increase
same,LC3B-II levels,"LC3B-II; U87-MG, different concentrations, 10 μM at 0, 6, 12, 24 h (FIG. 1A, 1B)",increases LC3B-II levels
same,IC50,hOS Saos2,3.16 µM
same,IC50,Normal FB1,200 µM
same,Co-localization of LC3B and LAMP1,autolysosome formation [3],not observed
same,GI50,U87-MG cells [4],7 µM
same,number of lysosomes (LAMP1 staining),[5],increased numbers of lysosomes
same,IC50,HEK293,2 µM
same,p62 punctae,p62 [6],increase in p62 punctae
same,IC50,cOS Gracie,2 µM
same,IC50,MCT C2,100 µM
same,IC50,Hela cells,7.94 µM
same,IC50,Fel SCC1,2 µM
same,IC50,cOS Brandie mets,3.98 µM
same,lysosensor yellow/blue dextran fluorescence of lysosomes,[2],mainly had red/blue vacuoles
same,GFP and RFP fluorescence of vacuoles in RFP-GFP-LC3B cells,autolysosome formation [7],retained both GFP and RFP positive vacuoles
same,number of LC3B punctate,"LC3B; 10 μM, 16 hours, FIG. 1C",significant increase
same,number of autophagic vacuoles,"LC3B; torin1 100 nM 4 h followed by TCH-165 10 μM 16 h, FIG. 2B",significantly increased
same,IC50,hOS U2OS,5.01 µM
same,IC50,cOS Abrams,12.6 µM
same,GI50,"U87-MG cells [1]; Homo sapiens, U-87 MG, U87-MG, MTS-based assay, FIG. 5B",4.5 µM
same,IC50,Normal FB2,20 µM
same,IC50,HS BD,6.31 µM
same,IC50,Fel SCC3,200 µM
same,tolerance / signs of toxicity,[8],without showing any clinical or biochemical signs of toxicity
same,IC50,Fel SCC2,25.1 µM
same,IC50,cOS Brandie primary,3.16 µM
same,IC50,cOS Ginger,7.94 µM
same,IC50,HS PJ,3.16 µM
same,IC50,HS DH82,2 µM
same,"effect on expression of beclin-1, ATG5 and ATG12","beclin-1, ATG5 and ATG12",did not appear to have any significant effect
same,p62 level,p62 [9],increase in p62
same,IC50,hOS MG63,3.16 µM
same,IC50,cOS Blaz,6.31 µM
same,IC50,cOS D17,6.31 µM
CCOC(=O)[C@]1(c2ccccc2)N=C(c2ccccc2)N(Cc2ccccc2)[C@@H]1c1ccccc1 [TCH-013],IC50,hOS Saos2,5.01 µM
same,IC50,Normal FB1,200 µM
same,IC50,cOS Gracie,6.31 µM
same,IC50,Hela cells,10 µM
same,IC50,Fel SCC1,10 µM
same,IC50,cOS Brandie mets,15.8 µM
same,IC50,hOS U2OS,15.8 µM
same,IC50,cOS Abrams,15.8 µM
same,IC50,Normal FB2,39.8 µM
same,IC50,HS BD,5.01 µM
same,IC50,Fel SCC3,50.1 µM
same,IC50,Fel SCC2,200 µM
same,IC50,cOS Brandie primary,10 µM
same,IC50,cOS Ginger,3.16 µM
same,IC50,HS PJ,3.98 µM
same,IC50,HS DH82,10 µM
same,IC50,hOS MG63,20 µM
same,IC50,cOS Blaz,12.6 µM
same,IC50,cOS D17,20 µM
